# From PubChem BioAssay AID1259408 (Genetic Toxicology Data Bank (GENE-TOX), 2018)
# The source made the active and inactive calls. No rule for the calls is given here.
# Test system: GENE-TOX genotoxicity assays, various organisms and cells
# Experiment: GENE-TOX mutagenicity studies
# Conditions: for call: Assay Type: In vivo carcinogenicity studies
# Source text: GENE-TOX provides genetic toxicology (mutagenicity) test data from expert peer review of open scientific literature for more than 3,000 chemicals from the United States Environmental Protection Agency (EPA). GENE-TOX was established to select assay systems for evaluation, review data in the scientific literature, and recommend proper testing protocols and evaluation procedures for these systems.
# GENE-TOX covers the years 1991 - 1998. It is no longer updated.
# This is an archive assay for GENE-TOX mutagenicity studies.
# [1] = Species/Cell Type: Chinese hamster lung (V79) cells, Assay Type: Forward gene mutation at the HPRT or ouabain locus, Assay Code: V79+, Evaluation Type: Evaluation A (Pre-1980)
# [2] = Species/Cell Type: Escherichia coli polA (W3119 vs P3478), Assay Type: Rec-assay, DNA effects (bacterial DNA repair), Assay Code: RE1+, Evaluation Type: Evaluation A (Pre-1980)
# [3] = Species/Cell Type: Human lymphocytes, Assay Type: Sister-chromatid exchange (SCE) in vitro, Assay Code: SCL+, Evaluation Type: Evaluation B (Post-1980)
# [4] = Species/Cell Type: Saccharomyces cerevisiae, Assay Type: Mitotic recombination or gene conversion, Assay Code: YEC+, Evaluation Type: Evaluation A (Pre-1980)
# [5] = Species/Cell Type: Salmonella typhimurium (one or more of the five standard strains: TA98, TA100, TA1535, TA1537, and TA1538), Assay Type: Histidine reverse gene mutation, Ames assay, Assay Code: SAL+, Evaluation Type: Evaluation A (Pre-1980)
# [6] = Species/Cell Type: Drosophila melanogaster, Assay Type: Sex-linked recessive lethal gene mutation, Assay Code: SRLT, Evaluation Type: Evaluation A (Pre-1980)
# [7] = Species/Cell Type: Nonhuman, Assay Type: Sister-chromatid exchange (SCE) in vitro, Assay Code: SC2+D, Dose Response: With dose response, Evaluation Type: Evaluation B (Post-1980)
# [8] = Species/Cell Type: Human, Assay Type: Sister-chromatid exchange (SCE) in vitro, Assay Code: SC1+D, Dose Response: With dose response, Evaluation Type: Evaluation B (Post-1980)
# [9] = Species/Cell Type: Human, Assay Type: Sister-chromatid exchange (SCE) in vitro, Assay Code: SC1T, Evaluation Type: Evaluation B (Post-1980)
smiles,measurement,setting,value
CC(=O)ON(C(C)=O)c1ccc2c(c1)Cc1ccccc1-2,mutagenic call,[1],active; positive
same,mutagenic call,"Species/Cell Type: Drosophila melanogaster, Assay Type: Sex-linked recessive lethal gene mutation, Assay Code: SRL+, Evaluation Type: Evaluation A (Pre-1980)",active; positive
same,mutagenic call,[2],active; positive
same,mutagenic call,"Species/Cell Type: Fischer rat embryo (RLV/1706) cells, Assay Type: Cell transformation, viral enhanced, Assay Code: CTR+, Evaluation Type: Evaluation A (Pre-1980)",active; positive
same,mutagenic call,"Species/Cell Type: Human diploid fibroblasts, Assay Type: Unscheduled DNA synthesis (UDS) in vitro, DNA effects, Assay Code: UDH+D, Dose Response: With dose response, Evaluation Type: Evaluation A (Pre-1980)",active; positive
same,mutagenic call,[3],active; positive
same,mutagenic call,"Species/Cell Type: Human, Assay Type: Sister-chromatid exchange (SCE) in vitro, Assay Code: SC1+, Evaluation Type: Evaluation A (Pre-1980)",active; positive
same,mutagenic call,"Species/Cell Type: Mouse (BALB/c-3T3) cells, Assay Type: Cell transformation, Assay Code: CTB+, Evaluation Type: Evaluation A (Pre-1980)",active; positive
same,mutagenic call,"Species/Cell Type: Mouse (C3H/10T1/2) cells, Assay Type: Cell transformation, Assay Code: CTH+D, Dose Response: With dose response, Evaluation Type: Evaluation A (Pre-1980)",active; positive
same,mutagenic call,"Species/Cell Type: Mouse embryo (AKR/ME) cells, Assay Type: Cell transformation, Assay Code: CTK+, Evaluation Type: Evaluation A (Pre-1980)",active; positive
same,mutagenic call,"Species/Cell Type: Neurospora crassa, Assay Type: Reverse gene mutation, Assay Code: NER+, Evaluation Type: Evaluation A (Pre-1980)",active; positive
same,call,"Species/Cell Type: Nonhuman, Assay Code: CCG+L, Evaluation Type: Evaluation A (Pre-1980)",active; positive
same,mutagenic call,"Species/Cell Type: Nonhuman, Assay Type: Sister-chromatid exchange (SCE) in vitro, Assay Code: SC2+D, Dose Response: With dose response, Evaluation Type: Evaluation A (Pre-1980)",active; positive
same,mutagenic call,"Species/Cell Type: Nonhuman, Assay Type: Sister-chromatid exchange (SCE) in vivo, Assay Code: SC3+, Evaluation Type: Evaluation B (Post-1980)",active; positive
same,mutagenic call,"Species/Cell Type: Nonhuman, Assay Type: Sister-chromatid exchange (SCE) in vivo, Assay Code: SC3T, Evaluation Type: Evaluation A (Pre-1980)",no conclusion
same,mutagenic call,"Species/Cell Type: Rat primary hepatocytes, Assay Type: Unscheduled DNA synthesis (UDS) in vitro, DNA effects, Assay Code: UDP+, Evaluation Type: Evaluation A (Pre-1980)",active; positive
same,mutagenic call,[4],active; positive
same,mutagenic call,"Species/Cell Type: Saccharomyces cerevisiae, Assay Type: Mitotic recombination or gene conversion, Assay Code: YEH+, Evaluation Type: Evaluation A (Pre-1980)",active; positive
same,mutagenic call,[5],active; positive
same,mutagenic call,"Species/Cell Type: Salmonella typhimurium, Assay Type: Forward and reverse gene mutation, host-mediated assay, Assay Code: HMA+, Evaluation Type: Evaluation A (Pre-1980)",active; positive
same,mutagenic call,"Species/Cell Type: Syrian hamster embryo (SA7/SHE) cells, Assay Type: Cell transformation, viral enhanced, Assay Code: CT7+, Evaluation Type: Evaluation A (Pre-1980)",active; positive
same,mutagenic call,"Species/Cell Type: Syrian hamster embryo (SHE) cells, Assay Type: Cell transformation, clonal assay, Assay Code: CTC+D, Dose Response: With dose response, Evaluation Type: Evaluation A (Pre-1980)",active; positive
same,mutagenic call,"Species/Cell Type: Syrian hamster embryo (SHE) cells, Assay Type: Cell transformation, focus assay, Assay Code: CTF+, Evaluation Type: Evaluation A (Pre-1980)",active; positive
CCCCN(CCO)N=O,mutagenic call,[5],active; positive
COP(=S)(OC)SCc1nc(N)nc(N)n1,mutagenic call,"Species/Cell Type: Hordeum vulgare (barley), Assay Type: Chromosome aberrations, Assay Code: HOC-, Evaluation Type: Evaluation A (Pre-1980)",inactive; negative
O=C(CCc1ccc([N+](=O)[O-])o1)NC1CCCCC1,mutagenic call,"Species/Cell Type: Neurospora crassa, Assay Type: Forward gene mutation, Assay Code: NEF-, Evaluation Type: Evaluation A (Pre-1980)",inactive; negative
O[C@@H]1[C@@H]2O[C@@H]2c2cc3c(ccc4ccccc43)cc2[C@H]1O,mutagenic call,[1],active; positive
same,mutagenic call,[5],active; positive
c1cc2ccc3cc4c(c5ccc(c1)c2c35)[C@H]1O[C@H]1CC4,mutagenic call,[1],active; positive
same,mutagenic call,"Species/Cell Type: Mouse prostate cells, Assay Type: Cell transformation, Assay Code: CTM-, Evaluation Type: Evaluation A (Pre-1980)",inactive; negative
same,call,"Species/Cell Type: Nonhuman, Assay Code: CCGT, Evaluation Type: Evaluation A (Pre-1980)",no conclusion
same,mutagenic call,[5],active; positive
O=CCBr,mutagenic call,[2],active; positive
CCN(CCO)CCCNc1c2ccc(Cl)cc2nc2ccc(OC)nc12,mutagenic call,"Species/Cell Type: Chinese hamster ovary (CHO) cells, Assay Type: Forward gene mutation at the HPRT locus, Assay Code: CHOT, Evaluation Type: Evaluation B (Post-1980)",no conclusion
C=CC1C(C)OC(=O)C1C(C)=O (configuration not stated),mutagenic call,"Species/Cell Type: Allium cepa, Assay Type: Chromosome aberrations, Assay Code: ALC+, Evaluation Type: Evaluation A (Pre-1980)",active; positive
CCCCS(=O)(=O)OC,mutagenic call,"Species/Cell Type: Glycine max (soybean), Assay Type: Gene mutation, Assay Code: GLM+, Evaluation Type: Evaluation A (Pre-1980)",active; positive
CC(F)F,mutagenic call,[6],no conclusion
Cc1cc(N(C)CCCl)ccc1N=Nc1ccccc1C(=O)O,mutagenic call,[6],no conclusion
O/C=C/Cc1ccc2c(c1)OCO2,mutagenic call,"Species/Cell Type: Human diploid fibroblasts, Assay Type: Unscheduled DNA synthesis (UDS) in vitro, DNA effects, Assay Code: UDH+, Evaluation Type: Evaluation A (Pre-1980)",active; positive
CCCCNC(=O)NS(=O)(=O)c1ccc(C)cc1,mutagenic call,"Species/Cell Type: Mammalian polychromatic erythrocytes, Assay Type: Micronucleus test, chromosome aberrations, Assay Code: MNT+, Evaluation Type: Evaluation A (Pre-1980)",active; positive
same,mutagenic call,"Species/Cell Type: Nonhuman, Assay Type: Sister-chromatid exchange (SCE) in vivo, Assay Code: SC3+D, Dose Response: With dose response, Evaluation Type: Evaluation B (Post-1980)",active; positive
CCN(N=O)C(=O)Nc1ccccc1,mutagenic call,[7],active; positive
Cn1cnc2c1c(=O)[nH]c(=O)n2C,mutagenic call,"Species/Cell Type: Allium cepa, Assay Type: Chromosome aberrations, Assay Code: ALC-, Evaluation Type: Evaluation A (Pre-1980)",inactive; negative
same,mutagenic call,[3],active; positive
same,mutagenic call,"Species/Cell Type: Human, Assay Type: Sister-chromatid exchange (SCE) in vitro, Assay Code: SC1+, Evaluation Type: Evaluation B (Post-1980)",active; positive
same,mutagenic call,"Species/Cell Type: Mammalian polychromatic erythrocytes, Assay Type: Micronucleus test, chromosome aberrations, Assay Code: MNT+U, Dose Response: Unconfirmed positive response, Evaluation Type: Evaluation B (Post-1980)",active; positive
same,mutagenic call,[7],active; positive
same,mutagenic call,"Species/Cell Type: Nonhuman, Sex: Female, Assay Type: Sister-chromatid exchange (SCE) in vivo, Assay Code: SC3+DF, Dose Response: With dose response, Evaluation Type: Evaluation B (Post-1980)",active; positive
same,mutagenic call,"Species/Cell Type: Nonhuman, Sex: Male, Assay Type: Sister-chromatid exchange (SCE) in vivo, Assay Code: SC3+DM, Dose Response: With dose response, Evaluation Type: Evaluation B (Post-1980)",active; positive
COc1cc(C=O)ccc1O,mutagenic call,"Species/Cell Type: Human lymphocytes, Assay Type: Sister-chromatid exchange (SCE) in vitro, Assay Code: SCL+D, Dose Response: With dose response, Evaluation Type: Evaluation B (Post-1980)",active; positive
same,mutagenic call,[8],active; positive
Cc1ccc(NC(=O)N(CCCl)N=O)cc1NC(=O)N(CCCl)N=O,mutagenic call,[4],active; positive
O=C(O)CSc1ccc2c3c(cccc13)C(=O)c1ccccc1-2,mutagenic call,[5],active; positive
O=c1[nH]c(=O)n([C@H]2C[C@H](O)[C@@H](CO)O2)cc1/C=C/C(F)(F)F,mutagenic call,[8],active; positive
COc1cc2c(c3oc(=O)c4c(c13)C(O)CC4O)[C@@H]1C=CO[C@@H]1O2 (some centres not stated),mutagenic call,"Species/Cell Type: Salmonella typhimurium (one or more of the five standard strains: TA98, TA100, TA1535, TA1537, and TA1538), Assay Type: Histidine reverse gene mutation, Ames assay, Assay Code: SAL+*, Activation: With metabolic activation, Evaluation Type: Evaluation A (Pre-1980)",active; positive
Cc1c(C)c2c(c(C)c1O)CCC(C)(CCCC(C)CCCC(C)CCCC(C)C)O2 (configuration not stated),mutagenic call,"Species/Cell Type: Human lymphocytes, Assay Type: Sister-chromatid exchange (SCE) in vitro, Assay Code: SCLT, Evaluation Type: Evaluation B (Post-1980)",no conclusion
same,mutagenic call,[9],no conclusion
CN(C)CCCN1c2ccccc2Sc2ccc(C(F)(F)F)cc21,mutagenic call,"Species/Cell Type: Nonhuman bone marrow, Assay Type: Chromosome aberrations, in vivo, Assay Code: CY#-, Evaluation Type: Evaluation A (Pre-1980)",inactive; negative
same,mutagenic call,"Species/Cell Type: Nonhuman, Assay Type: Chromosome aberrations in vitro, Assay Code: CY&+, Evaluation Type: Evaluation A (Pre-1980)",active; positive
same,mutagenic call,"Species/Cell Type: Rodents, Sex: Male, Assay Type: Dominant lethal test, Assay Code: DLT+, Evaluation Type: Evaluation A (Pre-1980)",active; positive
same,mutagenic call,"Species/Cell Type: Salmonella typhimurium, Assay Type: Forward and reverse gene mutation, host-mediated assay, Assay Code: HMA-, Evaluation Type: Evaluation A (Pre-1980)",inactive; negative
C=C1C[C@@]23CC[C@H]4[C@@](C)(CCC[C@@]4(C)C(=O)O[C@@H]4O[C@H](CO)[C@@H](O)[C@H](O)[C@H]4O)[C@@H]2CC[C@]1(O[C@@H]1O[C@H](CO)[C@@H](O)[C@H](O)[C@H]1O[C@@H]1O[C@H](CO)[C@@H](O)[C@H](O)[C@H]1O)C3,mutagenic call,[9],no conclusion
